Columns and labels:
[1] = In vitro skin tape-stripping study; type: in vitro ADME, human; details: o/w cream with octyl salicylate vs control cream without; 10 hours after application; 20 tape strips
Description: Experiments were performed using full thickness human skin, after removal of the subcutaneous layer. Each skin sample was treated with 40 mg of appropriate donor phase. Serial sampling of the skin was completed at different time points after donor application, by tape stripping (3M Corp Adhesive tape) with a pressure load of 240 g/cm^2. Each tape strip removed approximately 1 layer of stratum corneum, and in each case, 20 tape strips were performed. Tape strips were extracted with methanol: chloroform and analysed by high performance liquid chromatography (HPLC).

[2] = In vitro skin diffusion study, flow-through diffusion cells; type: in vitro ADME, human; details: o/w cream with 2% octyl salicylate vs control cream without, 24 hours, 32° C, receptor 20% EtOH in water, p<0:05
Description: In vitro diffusion experiments were performed using stainless steel flow-through diffusion cells, using human epidermis maintained at 32° C. The receptor solution consisted of 20% EtOH in Milli-Q water. Eight cells for each condition were treated with 100 mg of appropriate donor phase. Samples were collected at appropriate time points and analysed by high performance liquid chromatography (HPLC).

Row | amount in the upper and middle regions of the stratum corneum (tape strips) [1] | increase of the cumulative amount across human epidermis compared with the control formulation [2] [%] | Compound
1 | increase the amount | – | O=C(O)CC(O)(CC(=O)O)C(=O)O [citric acid]
2 | – | 39 | O=c1c(-c2ccc(O)cc2)coc2cc(O)cc(O)c12 [genistein]
3 | increase the amount | – | COC1=C(OC)C(=O)C(C/C=C(\C)CC/C=C(\C)CC/C=C(\C)CC/C=C(\C)CC/C=C(\C)CC/C=C(\C)CC/C=C(\C)CC/C=C(\C)CC/C=C(\C)CCC=C(C)C)=C(C)C1=O [CoQ10, Coenzyme Q10]
